Source: patent EP1003557B1, “NEW SALTS WITH BENEFICIAL ORGANOLEPTIC PROPERTIES” (CHINOIN Gyogyszer és Vegyészeti Termékek Gyára RT., priority 1997, dated 1999)
Where a name gives a salt, the structure may show the parent alone.

System: Human U937 (cell line) PDE-IV enzime
Test: Cyclic nucleotide phosphodiesterase (PDE-IV) enzyme inhibition, two-step [3H]cAMP procedure
Assay type: biochemical
Settings: [3H]cAMP substrate, 30 °C for 30 min, Tris buffer pH=7.6
Description: Cyclic nucleotide phosphodiesterase activity is measured by a two-step procedure. […] The reaction is initiated by addition of the substrate. […] After cooling the tubes, 50µl of Crotalux atrox (0.5 mg/ml dest. water) is added and the samples are incubated and shaked for 30 min at 37°C. […] The mixture of 500 µl supernatant and 5 ml of liquid scintillation cocktail is measured to determine the amount of formed ^3H adenosine.

Molecule | IC50 [µM]
CCOc1ccc(/C=C2\NCCc3cc(OCC)c(OCC)cc32)cc1OCC [drotaverin hydrochloride, reference compound] | 4.7
CCOc1ccc(C=C2NCCc3cc(OCC)c(OCC)cc32)cc1OCC [Example 2, drotaverin cyclamate] | 1
drotaverin-saccharimide ethanolate [Example 1] | 3.8
